Patent US20260013501A1, “HERBICIDAL DERIVATIVES” (SYNGENTA CROP PROTECTION AG, priority 2022, published 2026)

Tests used:
Format in all cases: in vivo
Zea mays (ZEAMX) [1] = test: Post-emergence Test (Table B2), ZEAMX; parameters: key: 5-point damage scale: 5=81-100%, 4=61-80%, 3=41-60%, 2=21-40%, 1=0-20%; details: evaluated after 13 days
Outline: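 Evaluation 13 days post-spray gives percent plant damage, reported in five 20% bands (1=0-20% up to 5=81-100%). Test species, sown in soil and kept at 24/16 °C day/night with 14 h light, are treated with compound in 50:50 acetone/water plus 0.5% Tween 20, applied per g/ha.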

[2] = system: Echinochloa crus-galli (ECHCG); test: Post-emergence Test (Table B2), ECHCG; parameters: key: 5-point damage scale: 5=81-100%, 4=61-80%, 3=41-60%, 2=21-40%, 1=0-20%; details: evaluated after 13 days
Protocol: (§1) Seeds of a variety of test species are sown in standard soil in pots (Ipomoea hederacea (IPOHE), Zea mays (ZEAMX), Echinochloa crus-galli (ECHCG), Amaranthus palmeri (AMAPA), (Amaranthus retoflexus (AMARE), and (Setaria faberi (SETFA)). After 8 days cultivation under controlled conditions in a glasshouse (at 24° C./16° C., day/night; 14 hours light; 65% humidity), the plants are sprayed with an aqueous spray solution derived from the formulation of the technical active ingredient in acetone/water (50:50) solution containing 0.5% Tween 20 (polyoxyethelyene sorbitan monolaurate, CAS RN 9005-64-5). Rate of application is shown in g/ha in the tables below. The test plants are then grown in a glasshouse under controlled conditions in a glasshouse (at 24° C./16° C., day/night; 14 hours light; 65% humidity) and watered twice daily. After 13 days the test is evaluated for the percentage damage caused to the plant. The biological activities are shown in the following table on a five-point scale (5=81-100%; 4=61-80%; 3=41-60%; 2=21-40%; 1=0-20%; -=not tested).

[3] = system: Amaranthus palmeri (AMAPA); test: Post-emergence Test (Table B2), AMAPA; parameters: key: five-point scale: 5=81-100%, 4=61-80%, 3=41-60%, 2=21-40%, 1=0-20% damage; details: evaluated after 13 days
Protocol: as §1

[4] = system: Amaranthus retoflexus (AMARE); test: Post-emergence Test (Table B2), AMARE; parameters: key: five-point scale: 5=81-100%, 4=61-80%, 3=41-60%, 2=21-40%, 1=0-20% damage; details: evaluated after 13 days
Protocol: as §1

Setaria faberi (SETFA) = test: Post-emergence Test (Table B2), SETFA; parameters: key: five-point scale: 5=81-100%, 4=61-80%, 3=41-60%, 2=21-40%, 1=0-20% damage; details: evaluated after 13 days
Protocol: as §1

Zea mays (ZEAMX) [5] = test: Pre-emergence Test (Table B1), ZEAMX; details: evaluated after 13 days
[6] = system: Ipomoea hederacea (IPOHE); test: Pre-emergence Test (Table B1), IPOHE; details: evaluated after 13 days
[7] = system: Amaranthus palmeri (AMAPA); test: Pre-emergence Test (Table B1), AMAPA; details: evaluated after 13 days
[8] = system: Amaranthus retoflexus (AMARE); test: Pre-emergence Test (Table B1), AMARE; details: evaluated after 13 days
[9] = system: Echinochloa crus-galli (ECHCG); test: Pre-emergence Test (Table B1), ECHCG; details: Rate 250 g/Ha, evaluated after 13 days

CCn1c(Cc2ccc(C#N)c(=O)[nH]2)cc(=O)c(C(=O)O)c1-c1ccc(Cl)c(Cl)c1 [Compound 114, 6-[(5-cyano-6-oxo-1H-pyridin-2-yl)methyl]-2-(3,4-dichlorophenyl)-1-ethyl-4-oxo-pyridine-3-carboxylic acid]
0: percentage damage caused to the plant, ZEAMX (Zea mays (ZEAMX) [1]; rate 250 g/Ha) | percentage damage caused to the plant, ECHCG ([2]; rate 250 g/Ha) | percentage damage caused to the plant, AMAPA ([3]; rate 250 g/Ha) | percentage damage caused to the plant, AMARE ([4]; rate 250 g/Ha) | percentage damage caused to the plant, SETFA (Setaria faberi (SETFA); rate 250 g/Ha)

CCn1c(Cc2ccc(F)c(Cl)c2)cc(=O)c(C(=O)O)c1-c1ccc(Cl)c(Cl)c1 [Compound 75, 6-[(3-chloro-4-fluoro-phenyl)methyl]-2-(3,4-dichlorophenyl)-1-ethyl-4-oxo-pyridine-3-carboxylic acid]
0: Pre-emergence Test, percentage damage caused to the plant (five-point scale), ZEAMX (Zea mays (ZEAMX) [5]; Rate 1000 g/Ha) | percentage damage caused to the plant, ZEAMX (Zea mays (ZEAMX) [1]; rate 1000 g/Ha) | percentage damage caused to the plant, AMAPA ([3]; rate 1000 g/Ha) | percentage damage caused to the plant, AMARE ([4]; rate 1000 g/Ha)

CCn1c(Cc2ccc(OC)cc2Cl)cc(=O)c(C(=O)O)c1-c1ccc(Cl)c(Cl)c1 [Compound 69, 6-[(2-chloro-4-methoxy-phenyl)methyl]-2-(3,4-dichlorophenyl)-1-ethyl-4-oxo-pyridine-3-carboxylic acid]
0: Pre-emergence Test, percentage damage caused to the plant (five-point scale), IPOHE ([6]; Rate 1000 g/Ha) | Pre-emergence Test, percentage damage caused to the plant (five-point scale), ZEAMX (Zea mays (ZEAMX) [5]; Rate 1000 g/Ha) | Pre-emergence Test, percentage damage caused to the plant (five-point scale), AMAPA ([7]; Rate 1000 g/Ha) | Pre-emergence Test, percentage damage caused to the plant (five-point scale), AMARE ([8]; Rate 1000 g/Ha) | percentage damage caused to the plant, ECHCG ([2]; rate 1000 g/Ha) | percentage damage caused to the plant, AMAPA ([3]; rate 1000 g/Ha) | percentage damage caused to the plant, AMARE ([4]; rate 1000 g/Ha)

CCn1c(Cc2cc(C)on2)cc(=O)c(C(=O)O)c1-c1ccc(Cl)c(Cl)c1 [Compound 135, 2-(3,4-dichlorophenyl)-1-ethyl-6-[(5-methylisoxazol-3-yl)methyl]-4-oxo-pyridine-3-carboxylic acid]
0: Pre-emergence Test, percentage damage caused to the plant (five-point scale), IPOHE ([6]; Rate 250 g/Ha) | Pre-emergence Test, percentage damage caused to the plant (five-point scale), ZEAMX (Zea mays (ZEAMX) [5]; Rate 250 g/Ha) | Pre-emergence Test, percentage damage caused to the plant (five-point scale), ECHCG [9] | Pre-emergence Test, percentage damage caused to the plant (five-point scale), AMAPA ([7]; Rate 250 g/Ha) | percentage damage caused to the plant, ECHCG ([2]; rate 250 g/Ha) | percentage damage caused to the plant, SETFA (Setaria faberi (SETFA); rate 250 g/Ha)

CCn1c(Cc2cccc(OC)c2)cc(=O)c(C(=O)O)c1-c1ccc(Cl)c(Cl)c1 [Compound 9, 2-(3,4-dichlorophenyl)-1-ethyl-6-[(3-methoxyphenyl)methyl]-4-oxo-pyridine-3-carboxylic acid]
0: Pre-emergence Test, percentage damage caused to the plant (five-point scale), IPOHE ([6]; Rate 250 g/Ha) | Pre-emergence Test, percentage damage caused to the plant (five-point scale), ZEAMX (Zea mays (ZEAMX) [5]; Rate 250 g/Ha) | Pre-emergence Test, percentage damage caused to the plant (five-point scale), ECHCG [9] | Pre-emergence Test, percentage damage caused to the plant (five-point scale), AMARE ([8]; Rate 250 g/Ha) | percentage damage caused to the plant, ZEAMX (Zea mays (ZEAMX) [1]; rate 250 g/Ha) | percentage damage caused to the plant, ECHCG ([2]; rate 250 g/Ha) | percentage damage caused to the plant, AMARE ([4]; rate 250 g/Ha) | percentage damage caused to the plant, SETFA (Setaria faberi (SETFA); rate 250 g/Ha)

CCOc1cccc(Cc2cc(=O)c(C(=O)O)c(-c3ccc(Cl)c(Cl)c3)n2CC)n1 [Compound 127, 2-(3,4-dichlorophenyl)-6-[(6-ethoxy-2-pyridyl)methyl]-1-ethyl-4-oxo-pyridine-3-carboxylicacid]
0: Pre-emergence Test, percentage damage caused to the plant (five-point scale), IPOHE ([6]; Rate 250 g/Ha) | Pre-emergence Test, percentage damage caused to the plant (five-point scale), ZEAMX (Zea mays (ZEAMX) [5]; Rate 250 g/Ha) | Pre-emergence Test, percentage damage caused to the plant (five-point scale), ECHCG [9] | Pre-emergence Test, percentage damage caused to the plant (five-point scale), AMAPA ([7]; Rate 250 g/Ha) | Pre-emergence Test, percentage damage caused to the plant (five-point scale), AMARE ([8]; Rate 250 g/Ha) | percentage damage caused to the plant, ZEAMX (Zea mays (ZEAMX) [1]; rate 250 g/Ha) | percentage damage caused to the plant, ECHCG ([2]; rate 250 g/Ha) | percentage damage caused to the plant, SETFA (Setaria faberi (SETFA); rate 250 g/Ha)

CCn1c(Cc2ccc(C)c(C#N)n2)cc(=O)c(C(=O)O)c1-c1ccc(Cl)c(Cl)c1 [Compound 113, 6-[(6-cyano-5-methyl-2-pyridyl)methyl]-2-(3,4-dichlorophenyl)-1-ethyl-4-oxo-pyridine-3-carboxylic acid]
0: Pre-emergence Test, percentage damage caused to the plant (five-point scale), ZEAMX (Zea mays (ZEAMX) [5]; Rate 250 g/Ha) | Pre-emergence Test, percentage damage caused to the plant (five-point scale), AMAPA ([7]; Rate 250 g/Ha) | Pre-emergence Test, percentage damage caused to the plant (five-point scale), AMARE ([8]; Rate 250 g/Ha) | percentage damage caused to the plant, AMAPA ([3]; rate 250 g/Ha) | percentage damage caused to the plant, AMARE ([4]; rate 250 g/Ha)

CCn1c(Cc2ccccc2C)cc(=O)c(C(=O)O)c1-c1ccc(Cl)c(Cl)c1 [Compound 15, 2-(3,4-dichlorophenyl)-1-ethyl-6-(o-tolylmethyl)-4-oxo-pyridine-3-carboxylic acid]
0: percentage damage caused to the plant, ECHCG ([2]; rate 1000 g/Ha) | percentage damage caused to the plant, SETFA (Setaria faberi (SETFA); rate 1000 g/Ha)

CCn1c(Cc2ccc(C)cc2F)cc(=O)c(C(=O)O)c1-c1ccc(Cl)c(Cl)c1 [Compound 67, 2-(3,4-dichlorophenyl)-1-3ethyl-6-[(2-fluoro-4-methyl-phenyl)methyl]-4-oxo-pyridine-3-3-carboxylic acid]
0: Pre-emergence Test, percentage damage caused to the plant (five-point scale), IPOHE ([6]; Rate 250 g/Ha) | Pre-emergence Test, percentage damage caused to the plant (five-point scale), ZEAMX (Zea mays (ZEAMX) [5]; Rate 250 g/Ha) | Pre-emergence Test, percentage damage caused to the plant (five-point scale), AMAPA ([7]; Rate 250 g/Ha) | Pre-emergence Test, percentage damage caused to the plant (five-point scale), AMARE ([8]; Rate 250 g/Ha) | percentage damage caused to the plant, ECHCG ([2]; rate 250 g/Ha) | percentage damage caused to the plant, AMAPA ([3]; rate 250 g/Ha) | percentage damage caused to the plant, SETFA (Setaria faberi (SETFA); rate 250 g/Ha)

CCn1c(Cc2ccc(F)cc2Cl)cc(=O)c(C(=O)O)c1-c1ccc(Cl)c(Cl)c1 [Compound 68, 6-[(2-chloro-4-fluoro-phenyl)methyl]-2-(3,4-dichlorophenyl)-1-ethyl-4-oxo-3-pyridine-3-carboxylic acid]
0: Pre-emergence Test, percentage damage caused to the plant (five-point scale), IPOHE ([6]; Rate 1000 g/Ha) | Pre-emergence Test, percentage damage caused to the plant (five-point scale), ZEAMX (Zea mays (ZEAMX) [5]; Rate 1000 g/Ha) | percentage damage caused to the plant, ECHCG ([2]; rate 1000 g/Ha) | percentage damage caused to the plant, AMAPA ([3]; rate 1000 g/Ha) | percentage damage caused to the plant, AMARE ([4]; rate 1000 g/Ha)

CCn1c(Cc2cncc(Cl)c2)cc(=O)c(C(=O)O)c1-c1ccc(Cl)c(Cl)c1 [Compound 17, 6-[(5-chloro-3-pyridyl)methyl]-2-(3,4-dichlorophenyl]-1-ethyl-4-oxo-pyridine-3-carboxylic acid]
0: Pre-emergence Test, percentage damage caused to the plant (five-point scale), IPOHE ([6]; Rate 250 g/Ha) | Pre-emergence Test, percentage damage caused to the plant (five-point scale), ZEAMX (Zea mays (ZEAMX) [5]; Rate 250 g/Ha) | Pre-emergence Test, percentage damage caused to the plant (five-point scale), ECHCG [9] | Pre-emergence Test, percentage damage caused to the plant (five-point scale), AMAPA ([7]; Rate 250 g/Ha) | Pre-emergence Test, percentage damage caused to the plant (five-point scale), AMARE ([8]; Rate 250 g/Ha) | percentage damage caused to the plant, ZEAMX (Zea mays (ZEAMX) [1]; rate 250 g/Ha) | percentage damage caused to the plant, ECHCG ([2]; rate 250 g/Ha) | percentage damage caused to the plant, AMAPA ([3]; rate 250 g/Ha) | percentage damage caused to the plant, AMARE ([4]; rate 250 g/Ha)

CCn1c(Cc2cc(Cl)cc(Cl)c2)cc(=O)c(C(=O)O)c1-c1ccc(Cl)c(Cl)c1 [Compound 10, 2-(3,4-dichlorophenyl)-6-[(3,5-dichlorophenyl)methyl]-1-ethyl-4-oxo-pyridine-3-carboxylic acid]
0: percentage damage caused to the plant, ZEAMX (Zea mays (ZEAMX) [1]; rate 1000 g/Ha) | percentage damage caused to the plant, ECHCG ([2]; rate 1000 g/Ha) | percentage damage caused to the plant, SETFA (Setaria faberi (SETFA); rate 1000 g/Ha)

CCn1c(Cc2ccc(OC)c(Cl)c2)cc(=O)c(C(=O)O)c1-c1ccc(Cl)c(Cl)c1 [Compound 86, 6-[(3-chloro-4-methoxy-phenyl)methyl]-2-(3,4-dichlorophenyl)-1-ethyl-4-oxo-pyridine-3-carboxylic acid]
0: Pre-emergence Test, percentage damage caused to the plant (five-point scale), IPOHE ([6]; Rate 250 g/Ha) | Pre-emergence Test, percentage damage caused to the plant (five-point scale), ZEAMX (Zea mays (ZEAMX) [5]; Rate 250 g/Ha) | Pre-emergence Test, percentage damage caused to the plant (five-point scale), AMAPA ([7]; Rate 250 g/Ha) | percentage damage caused to the plant, AMAPA ([3]; rate 250 g/Ha) | percentage damage caused to the plant, AMARE ([4]; rate 250 g/Ha)

CCn1c(Cc2cc(C)n(C)n2)cc(=O)c(C(=O)O)c1-c1ccc(Cl)c(Cl)c1 [Compound 120, 2-(3,4-dichlorophenyl)-6-[(1,5-dimethylpyrazol-3-yl)methyl]-1-ethyl-4-oxo-pyridine-3-carboxylic acid]
0: Pre-emergence Test, percentage damage caused to the plant (five-point scale), IPOHE ([6]; Rate 250 g/Ha) | Pre-emergence Test, percentage damage caused to the plant (five-point scale), ZEAMX (Zea mays (ZEAMX) [5]; Rate 250 g/Ha) | Pre-emergence Test, percentage damage caused to the plant (five-point scale), ECHCG [9] | Pre-emergence Test, percentage damage caused to the plant (five-point scale), AMAPA ([7]; Rate 250 g/Ha) | Pre-emergence Test, percentage damage caused to the plant (five-point scale), AMARE ([8]; Rate 250 g/Ha) | percentage damage caused to the plant, AMAPA ([3]; rate 250 g/Ha) | percentage damage caused to the plant, AMARE ([4]; rate 250 g/Ha)
